In ChEMBL document CHEMBL5465560, “Selectivity Literature for EUbOPEN Chemogenomic Library” (2024):

What was measured:
[1] = target: Tyrosine-protein kinase FRK (Homo sapiens) (UniProt P42685); assay: Selectivity interaction (KinomeScan (DiscoverX)) EUB0000666a FRK; conditions: at 10 µM
[2] = target: T1, Activin receptor type-1 (Homo sapiens) (UniProt Q04771); assay: Selectivity interaction (KinomeScan (DiscoverX)) EUB0000607a ACVR1; conditions: at 10 µM
T1 sequence (whole entry): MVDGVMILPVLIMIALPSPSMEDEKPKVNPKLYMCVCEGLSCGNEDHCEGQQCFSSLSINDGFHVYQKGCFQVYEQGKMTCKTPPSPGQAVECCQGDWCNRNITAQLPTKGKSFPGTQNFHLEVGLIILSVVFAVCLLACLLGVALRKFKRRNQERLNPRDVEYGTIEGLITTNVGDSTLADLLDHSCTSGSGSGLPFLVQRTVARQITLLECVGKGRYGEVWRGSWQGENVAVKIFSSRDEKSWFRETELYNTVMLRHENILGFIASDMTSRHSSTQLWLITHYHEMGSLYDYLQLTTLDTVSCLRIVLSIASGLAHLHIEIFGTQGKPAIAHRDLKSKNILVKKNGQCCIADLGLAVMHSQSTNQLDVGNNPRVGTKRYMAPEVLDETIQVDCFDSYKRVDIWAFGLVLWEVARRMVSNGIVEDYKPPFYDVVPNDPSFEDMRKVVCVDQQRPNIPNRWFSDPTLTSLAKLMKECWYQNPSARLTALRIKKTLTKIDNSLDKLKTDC

[3] = target: Serine/threonine-protein kinase 16 (Homo sapiens, UniProt O75716); assay: Selectivity interaction (KinomeScan (DiscoverX)) EUB0001049a STK16; conditions: at 1 µM
[4] = target: Serine/threonine-protein kinase Chk2 (Homo sapiens) (UniProt O96017); assay: Selectivity interaction (KinomeScan (DiscoverX)) EUB0001079a CHEK2; conditions: at 1 µM
[5] = target: Serine/threonine-protein kinase 32B (Homo sapiens) (UniProt Q9NY57); assay: Selectivity interaction (KinomeScan (DiscoverX)) EUB0000618a STK32B; conditions: at 10 µM
[6] = target: T2, Bone morphogenetic protein receptor type-2 (Homo sapiens) (UniProt Q13873); assay: Selectivity interaction (KinomeScan (DiscoverX)) EUB0000618a BMPR2; conditions: at 10 µM
T2 sequence (whole entry): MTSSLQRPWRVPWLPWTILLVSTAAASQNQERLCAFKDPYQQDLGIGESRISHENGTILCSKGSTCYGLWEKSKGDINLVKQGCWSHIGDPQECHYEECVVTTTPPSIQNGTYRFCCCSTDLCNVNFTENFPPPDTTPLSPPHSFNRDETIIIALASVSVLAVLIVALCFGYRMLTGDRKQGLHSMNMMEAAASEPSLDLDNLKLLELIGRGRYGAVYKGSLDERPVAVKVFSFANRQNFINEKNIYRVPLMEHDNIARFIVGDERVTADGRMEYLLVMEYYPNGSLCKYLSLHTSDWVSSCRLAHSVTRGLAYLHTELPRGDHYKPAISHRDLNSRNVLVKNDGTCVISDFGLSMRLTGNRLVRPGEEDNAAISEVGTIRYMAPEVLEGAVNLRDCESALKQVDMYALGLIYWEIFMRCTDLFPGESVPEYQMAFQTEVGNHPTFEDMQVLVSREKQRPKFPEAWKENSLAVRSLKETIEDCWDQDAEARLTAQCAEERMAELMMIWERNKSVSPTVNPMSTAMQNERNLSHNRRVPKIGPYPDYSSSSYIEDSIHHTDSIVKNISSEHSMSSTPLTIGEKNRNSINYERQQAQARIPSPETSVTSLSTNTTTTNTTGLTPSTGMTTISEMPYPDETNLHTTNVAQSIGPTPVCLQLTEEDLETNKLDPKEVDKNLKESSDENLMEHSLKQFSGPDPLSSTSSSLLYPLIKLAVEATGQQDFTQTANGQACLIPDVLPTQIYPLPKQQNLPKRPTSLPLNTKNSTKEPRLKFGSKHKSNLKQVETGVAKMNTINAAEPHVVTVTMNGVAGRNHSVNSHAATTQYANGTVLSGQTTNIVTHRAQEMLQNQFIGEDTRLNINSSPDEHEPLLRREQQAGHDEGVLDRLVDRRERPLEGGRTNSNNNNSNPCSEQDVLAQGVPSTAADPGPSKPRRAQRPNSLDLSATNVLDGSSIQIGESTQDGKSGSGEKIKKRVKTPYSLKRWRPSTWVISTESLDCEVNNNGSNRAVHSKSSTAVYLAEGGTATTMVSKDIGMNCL

[7] = target: T3, Serine/threonine-protein kinase D3 (Homo sapiens) (UniProt O94806); assay: Selectivity interaction (KinomeScan (DiscoverX)) EUB0001619a PRKD3; conditions: at 1 µM
T3 sequence (whole entry): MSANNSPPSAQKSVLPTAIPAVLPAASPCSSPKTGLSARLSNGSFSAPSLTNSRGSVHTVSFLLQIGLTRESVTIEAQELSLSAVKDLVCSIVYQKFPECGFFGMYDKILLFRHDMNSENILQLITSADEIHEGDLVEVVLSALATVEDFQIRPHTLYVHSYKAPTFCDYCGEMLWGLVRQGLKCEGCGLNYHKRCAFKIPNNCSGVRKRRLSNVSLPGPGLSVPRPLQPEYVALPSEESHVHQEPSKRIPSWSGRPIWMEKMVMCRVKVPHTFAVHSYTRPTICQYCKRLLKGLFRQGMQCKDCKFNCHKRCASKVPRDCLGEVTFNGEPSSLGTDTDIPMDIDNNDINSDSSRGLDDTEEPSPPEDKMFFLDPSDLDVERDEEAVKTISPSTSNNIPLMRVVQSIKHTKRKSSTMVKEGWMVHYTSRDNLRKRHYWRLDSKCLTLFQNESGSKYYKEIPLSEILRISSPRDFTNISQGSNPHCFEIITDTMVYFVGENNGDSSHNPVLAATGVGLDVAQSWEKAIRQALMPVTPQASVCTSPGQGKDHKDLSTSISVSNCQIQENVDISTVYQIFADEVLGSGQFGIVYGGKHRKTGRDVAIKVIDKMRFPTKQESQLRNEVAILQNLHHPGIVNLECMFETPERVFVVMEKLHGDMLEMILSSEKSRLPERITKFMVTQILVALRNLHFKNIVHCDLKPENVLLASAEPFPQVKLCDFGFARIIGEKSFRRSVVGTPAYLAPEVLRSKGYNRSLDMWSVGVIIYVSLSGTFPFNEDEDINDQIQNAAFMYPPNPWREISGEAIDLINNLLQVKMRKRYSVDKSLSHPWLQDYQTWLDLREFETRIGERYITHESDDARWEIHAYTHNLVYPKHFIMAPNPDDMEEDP

Chain of Tyrosine-protein kinase FRK (Homo sapiens) (P42685 whole entry): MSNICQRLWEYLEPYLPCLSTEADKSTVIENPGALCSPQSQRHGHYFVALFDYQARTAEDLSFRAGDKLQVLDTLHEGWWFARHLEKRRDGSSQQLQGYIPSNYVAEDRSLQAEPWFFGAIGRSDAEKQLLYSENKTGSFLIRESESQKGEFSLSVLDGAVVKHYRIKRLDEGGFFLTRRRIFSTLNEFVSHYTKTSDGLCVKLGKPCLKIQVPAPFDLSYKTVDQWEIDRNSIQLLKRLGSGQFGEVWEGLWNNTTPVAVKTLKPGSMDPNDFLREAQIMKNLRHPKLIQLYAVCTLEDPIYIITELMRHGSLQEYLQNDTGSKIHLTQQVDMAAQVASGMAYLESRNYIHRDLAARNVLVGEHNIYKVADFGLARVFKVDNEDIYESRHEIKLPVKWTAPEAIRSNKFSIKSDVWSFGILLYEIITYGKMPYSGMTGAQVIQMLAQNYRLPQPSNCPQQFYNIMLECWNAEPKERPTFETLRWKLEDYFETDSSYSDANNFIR
Chain of Serine/threonine-protein kinase Chk2 (Homo sapiens) (O96017 whole entry): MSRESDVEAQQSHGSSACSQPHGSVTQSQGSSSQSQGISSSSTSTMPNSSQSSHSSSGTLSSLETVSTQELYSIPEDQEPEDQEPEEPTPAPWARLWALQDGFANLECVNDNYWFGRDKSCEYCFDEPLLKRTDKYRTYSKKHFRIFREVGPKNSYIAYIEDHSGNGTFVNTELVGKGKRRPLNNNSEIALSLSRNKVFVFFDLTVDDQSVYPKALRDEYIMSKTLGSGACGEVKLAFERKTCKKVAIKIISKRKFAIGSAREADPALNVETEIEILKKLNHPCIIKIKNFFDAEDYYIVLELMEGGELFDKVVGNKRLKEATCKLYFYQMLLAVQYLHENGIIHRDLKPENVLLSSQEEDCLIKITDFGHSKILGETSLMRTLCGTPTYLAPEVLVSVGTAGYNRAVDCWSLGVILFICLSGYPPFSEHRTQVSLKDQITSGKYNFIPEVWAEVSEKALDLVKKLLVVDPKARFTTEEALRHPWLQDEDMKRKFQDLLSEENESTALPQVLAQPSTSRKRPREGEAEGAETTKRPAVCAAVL
Chain of Serine/threonine-protein kinase 16 (O75716 whole entry): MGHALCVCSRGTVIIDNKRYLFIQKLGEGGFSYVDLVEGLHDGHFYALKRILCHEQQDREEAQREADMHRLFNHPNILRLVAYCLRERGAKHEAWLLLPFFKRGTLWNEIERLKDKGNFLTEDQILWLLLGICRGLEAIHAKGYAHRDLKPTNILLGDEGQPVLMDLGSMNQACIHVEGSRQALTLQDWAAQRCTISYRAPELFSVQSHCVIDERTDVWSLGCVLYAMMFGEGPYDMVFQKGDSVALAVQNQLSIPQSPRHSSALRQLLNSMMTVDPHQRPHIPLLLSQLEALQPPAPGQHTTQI
Chain of Serine/threonine-protein kinase 32B (Homo sapiens) (Q9NY57 whole entry): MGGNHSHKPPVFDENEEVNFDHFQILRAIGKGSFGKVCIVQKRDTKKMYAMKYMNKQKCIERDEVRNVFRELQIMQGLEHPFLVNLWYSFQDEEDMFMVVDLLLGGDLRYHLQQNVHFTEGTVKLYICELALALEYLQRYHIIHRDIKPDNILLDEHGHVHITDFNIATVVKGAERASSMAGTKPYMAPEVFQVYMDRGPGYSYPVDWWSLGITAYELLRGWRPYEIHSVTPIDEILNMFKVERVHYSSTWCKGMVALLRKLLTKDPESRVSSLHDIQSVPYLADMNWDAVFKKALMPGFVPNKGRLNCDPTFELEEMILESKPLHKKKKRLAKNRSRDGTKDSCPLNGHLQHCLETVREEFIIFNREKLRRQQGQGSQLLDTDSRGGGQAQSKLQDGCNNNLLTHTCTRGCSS

O=C(NOC[C@H](O)CO)c1ccc(F)c(F)c1Nc1ccc(I)cc1F
% of control [1]: 60%

CNC(=O)Nc1ccc(-c2nc(N3CC4CCC(C3)O4)c3cnn(C4CCC5(CC4)OCCO5)c3n2)cc1
% of control [2]: 90%

COc1cc(Nc2nc(C)cc(-c3cnn4nc(OC)ccc34)n2)cc(C(F)(F)F)c1
% of control [3]: 81%

Nc1cnc(N2CCc3cc(S(=O)(=O)Nc4c(F)cc(Cl)cc4F)cc(N4CCCC4=O)c32)nc1 [TP-020n]
% of control [4]: 92%

O[C@H]1CC[C@H](Nc2ncc3nc(Nc4c(F)cc(F)cc4F)n([C@H]4CCOC4)c3n2)CC1
% of control [5]: 87% | % of control [6]: 78%

N#Cc1cccc(-c2c[nH]c3ncnc(N4CCOCC4)c23)c1
% of control [7]: 64%
